According to ChEMBL document CHEMBL1165847, “Urotensin-II receptor modulators as potential drugs” (J Med Chem, 2010):
Calls of active or inactive are those of the source. The rule behind the calls is not given here. Where a SMILES comes first, the peptide text is derived from it. Bridges are numbered along the chain shown (N, C = ends). [ ]: non-standard residue; d: D form. 1Nal = N[C@@H](Cc1cccc2ccccc12)C(=O)O; 2Nal = N[C@@H](Cc1ccc2ccccc2c1)C(=O)O

Experiments:
[1] = molecular target: T1, Urotensin-2 receptor (Rattus norvegicus) (UniProt P49684); test: Antagonist activity at rat urotensin 2 receptor expressed in CHO cells assessed as calcium mobilization at 300 nM by FLIPR; type: functional, cell-based
T1 sequence (whole entry): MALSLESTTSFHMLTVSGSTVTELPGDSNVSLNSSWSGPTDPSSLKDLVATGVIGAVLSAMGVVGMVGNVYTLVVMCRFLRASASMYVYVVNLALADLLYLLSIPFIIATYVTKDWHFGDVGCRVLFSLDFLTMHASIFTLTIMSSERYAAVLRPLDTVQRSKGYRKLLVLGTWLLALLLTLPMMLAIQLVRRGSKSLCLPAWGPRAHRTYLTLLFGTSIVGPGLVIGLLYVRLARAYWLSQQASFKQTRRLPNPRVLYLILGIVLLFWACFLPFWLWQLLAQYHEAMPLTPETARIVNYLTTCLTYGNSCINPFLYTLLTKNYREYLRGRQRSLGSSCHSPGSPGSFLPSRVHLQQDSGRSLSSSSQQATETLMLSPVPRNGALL

Urotensin-2 receptor [2] = molecular target: T2, Urotensin-2 receptor (Rattus norvegicus, UniProt P49684); test: Displacement of [125I]U2 from rat urotensin 2 receptor expressed in CHO cells; type: cell-based
T2 sequence (P49684 whole entry): T1 sequence (whole entry)

Urotensin-2 receptor [3] = molecular target: T2, Urotensin-2 receptor; test: Agonist activity at rat urotensin 2 receptor expressed in CHO cells assessed as calcium mobilization by FLIPR; type: functional, cell-based
Aorta = test: Vasoconstriction activity in spontaneously […] rat thoracic aorta at 30 nM; type: functional

| Structure (SMILES) | EC50 (Urotensin-2 receptor [3]) | Ki (Urotensin-2 receptor [2]) | other results |
| --- | --- | --- | --- |
| CC(=O)N[C@H]1CSSC[C@@H](C(N)=O)NC(=O)[C@H](Cc2ccc(O)cc2)NC(=O)[C@H](CCCCN)NC(=O)[C@H](Cc2c[nH]c3ccccc23)NC(=O)[C@@H](Cc2ccccc2)NC1=O |  |  | Activity [1]: inactive; Ki (Urotensin-2 receptor [2]; cho): < 10000 nM |
| CC(=O)N[C@H]1CSSC[C@@H](C(N)=O)NC(=O)[C@H](Cc2ccc(O)cc2)NC(=O)[C@H](CCCCN)NC(=O)[C@@H](Cc2c[nH]c3ccccc23)NC(=O)[C@H](Cc2ccccc2)NC1=O | 26 nM | 610 nM |  |
| CC(=O)N[C@H]1CSSC[C@@H](C(N)=O)NC(=O)[C@@H](Cc2ccc(O)cc2)NC(=O)[C@H](CCCCN)NC(=O)[C@H](Cc2c[nH]c3ccccc23)NC(=O)[C@H](Cc2ccccc2)NC1=O | 37 nM | 1100 nM |  |
| CC(=O)N[C@H]1CSSC[C@@H](C(N)=O)NC(=O)[C@H](Cc2ccc(O)cc2)NC(=O)[C@@H](CCCCN)NC(=O)[C@H](Cc2c[nH]c3ccccc23)NC(=O)[C@H](Cc2ccccc2)NC1=O |  |  | Activity [1]: inactive; Ki (Urotensin-2 receptor [2]; cho): < 10000 nM |
| CC(=O)N[C@H]1CSSC[C@@H](C(N)=O)NC(=O)[C@H](Cc2ccc(O)cc2)NC(=O)[C@H](CCCCN)NC(=O)[C@H](Cc2c[nH]c3ccccc23)NC(=O)[C@H](Cc2ccccc2)NC1=O | 1.6 nM | 15 nM |  |
| CC(=O)N[C@H]1CSSC[C@@H](C(N)=O)NC(=O)[C@H](Cc2ccccc2)NC(=O)[C@H](CCCCN)NC(=O)[C@H](Cc2c[nH]c3ccccc23)NC(=O)[C@H](Cc2ccccc2)NC1=O (Ac-CFWKFC-NH2; disulfide 1-6) | 2.1 nM | 17 nM | Activity (Aorta): 11% |
| CC(=O)N[C@H]1CSSC[C@@H](C(N)=O)NC(=O)[C@H](Cc2cccc3ccccc23)NC(=O)[C@H](CCCCN)NC(=O)[C@H](Cc2c[nH]c3ccccc23)NC(=O)[C@H](Cc2ccccc2)NC1=O (Ac-CFWK[1Nal]C-NH2; disulfide 1-6) | 1.5 nM | 4.1 nM |  |
| CC(=O)N[C@H]1CSSC[C@@H](C(N)=O)NC(=O)[C@H](Cc2ccc3ccccc3c2)NC(=O)[C@H](CCCCN)NC(=O)[C@H](Cc2c[nH]c3ccccc23)NC(=O)[C@H](Cc2ccccc2)NC1=O (Ac-CFWK[2Nal]C-NH2; disulfide 1-6) |  |  | Activity (Aorta): 43% |
| CC(=O)N[C@H]1CSSC[C@@H](C(N)=O)NC(=O)[C@H](Cc2ccc(O)cc2)NC(=O)[C@H](CCCCN)NC(=O)[C@H](Cc2ccc3ccccc3c2)NC(=O)[C@H](Cc2ccccc2)NC1=O (Ac-CF[2Nal]KYC-NH2; disulfide 1-6) | 31 nM | 200 nM |  |
| CC(=O)N[C@@H](Cc1c[nH]c2ccccc12)C(=O)N[C@@H](CCCCN)C(=O)N[C@@H](Cc1ccc(O)cc1)C(N)=O (Ac-Trp-Lys-Tyr-NH2) | < 500 nM |  | Ki (Urotensin-2 receptor [2]; cho): < 10000 nM |
| CC(C)[C@H](NC(=O)[C@@H]1CSSC[C@H](NC(=O)[C@H](C)NC(=O)[C@H](C)N)C(=O)N[C@@H](Cc2ccccc2)C(=O)N[C@@H](Cc2c[nH]c3ccccc23)C(=O)N[C@@H](CCCCN)C(=O)N[C@@H](Cc2ccc(O)cc2)C(=O)N1)C(=O)O (H-AACFWKYCV-OH; disulfide 3-8) | 0.6 nM |  |  |
| CC(C)[C@H](NC(=O)[C@@H]1CSSC[C@H](NC(=O)[C@H](CC(=O)O)NC(=O)[C@H](C)N)C(=O)N[C@@H](C)C(=O)N[C@@H](Cc2c[nH]c3ccccc23)C(=O)N[C@@H](CCCCN)C(=O)N[C@@H](Cc2ccc(O)cc2)C(=O)N1)C(=O)O (H-ADCAWKYCV-OH; disulfide 3-8) | 6.5 nM |  |  |
| CC(C)[C@H](NC(=O)[C@@H]1CSSC[C@H](NC(=O)[C@H](CC(=O)O)NC(=O)[C@H](C)N)C(=O)N[C@@H](Cc2ccccc2)C(=O)N[C@@H](C)C(=O)N[C@@H](CCCCN)C(=O)N[C@@H](Cc2ccc(O)cc2)C(=O)N1)C(=O)O (H-ADCFAKYCV-OH; disulfide 3-8) | > 1000 nM |  |  |
| CC(C)[C@H](NC(=O)[C@@H]1CSSC[C@H](NC(=O)[C@H](CC(=O)O)NC(=O)[C@H](C)N)C(=O)N[C@@H](Cc2ccccc2)C(=O)N[C@@H](Cc2c[nH]c3ccccc23)C(=O)N[C@@H](C)C(=O)N[C@@H](Cc2ccc(O)cc2)C(=O)N1)C(=O)O (H-ADCFWAYCV-OH; disulfide 3-8) | > 1000 nM |  |  |
| C[C@H](N)C(=O)N[C@@H](CC(=O)O)C(=O)N[C@H]1CSSC[C@@H](C(=O)N[C@@H](C)C(=O)O)NC(=O)[C@H](Cc2ccc(O)cc2)NC(=O)[C@H](CCCCN)NC(=O)[C@H](Cc2c[nH]c3ccccc23)NC(=O)[C@H](Cc2ccccc2)NC1=O (H-ADCFWKYCA-OH; disulfide 3-8) | 0.4 nM |  |  |
| CC(C)[C@H](NC(=O)[C@@H]1CSSC[C@H](NC(=O)[C@H](CC(=O)O)NC(=O)[C@H](C)N)C(=O)N[C@@H](Cc2ccccc2)C(=O)N[C@@H](Cc2c[nH]c3ccccc23)C(=O)N[C@@H](CCCCN)C(=O)N[C@@H](Cc2ccc(O)cc2)C(=O)N1)C(=O)O (H-ADCFWKYCV-OH; disulfide 3-8) | 0.16 nM |  |  |
| CC(C)[C@H](NC(=O)[C@@H]1CSSC[C@H](NC(=O)[C@H](CC(=O)O)NC(=O)[C@H](C)NC(=O)[C@@H](NC(=O)CNC(=O)[C@H](C)N)[C@@H](C)O)C(=O)N[C@@H](Cc2ccccc2)C(=O)N[C@@H](Cc2c[nH]c3ccccc23)C(=O)N[C@@H](CCCCN)C(=O)N[C@@H](Cc2ccc(O)cc2)C(=O)N1)C(=O)O (H-AGTADCFWKYCV-OH; disulfide 6-11) | 0.17 nM | 0.19 nM | Activity (Aorta): 91% |
| CC(C)[C@H](NC(=O)[C@@H]1CSSC[C@H](NC(=O)[C@H](CC(=O)O)NC(=O)[C@H](C)NC(=O)[C@@H](NC(=O)CNC(=O)[C@H](C)N)[C@@H](C)O)C(=O)N[C@@H](Cc2ccccc2)C(=O)N[C@@H](Cc2c[nH]c3ccccc23)C(=O)N[C@@H](CCCCN)C(=O)N[C@@H](Cc2ccc3ccccc3c2)C(=O)N1)C(=O)O (H-AGTADCFWK[2Nal]CV-OH; disulfide 6-11) | 0.34 nM | 0.02 nM |  |
| NCCCC[C@@H]1NC(=O)[C@H](Cc2c[nH]c3ccccc23)NC(=O)[C@H](Cc2ccccc2)NC(=O)[C@@H](N)CSSC[C@@H](C(=O)O)NC(=O)[C@H](Cc2ccc(O)cc2)NC1=O (H-CFWKYC-OH; disulfide 1-6) | 1.6 nM |  |  |
| CC(C)[C@H](NC(=O)[C@@H]1CSSC[C@H](N)C(=O)N[C@@H](Cc2ccccc2)C(=O)N[C@@H](Cc2c[nH]c3ccccc23)C(=O)N[C@@H](CCCCN)C(=O)N[C@@H](Cc2ccc(O)cc2)C(=O)N1)C(=O)O (H-CFWKYCV-OH; disulfide 1-6) | 0.76 nM |  |  |
| CC(C)[C@H](NC(=O)[C@@H]1CSSC[C@H](NC(=O)[C@@H](N)CC(=O)O)C(=O)N[C@@H](Cc2ccccc2)C(=O)N[C@@H](Cc2c[nH]c3ccccc23)C(=O)N[C@@H](CCCCN)C(=O)N[C@@H](Cc2ccc(O)cc2)C(=O)N1)C(=O)O (H-DCFWKYCV-OH; disulfide 2-7) | 0.1 nM |  |  |
| CC(C)[C@H](NC(=O)[C@@H]1CSSC[C@H](NC(=O)[C@H](CC(=O)O)NC(=O)[C@H](C)NC(=O)[C@@H](NC(=O)CN)[C@@H](C)O)C(=O)N[C@@H](Cc2ccccc2)C(=O)N[C@@H](Cc2c[nH]c3ccccc23)C(=O)N[C@@H](CCCCN)C(=O)N[C@@H](Cc2ccc(O)cc2)C(=O)N1)C(=O)O (H-GTADCFWKYCV-OH; disulfide 5-10) | 0.29 nM |  |  |
| CC(C)[C@H](NC(=O)[C@@H]1CSSC[C@H](NC(=O)[C@H](CC(=O)O)NC(=O)[C@H](C)NC(=O)[C@@H](N)[C@@H](C)O)C(=O)N[C@@H](Cc2ccccc2)C(=O)N[C@@H](Cc2c[nH]c3ccccc23)C(=O)N[C@@H](CCCCN)C(=O)N[C@@H](Cc2ccc(O)cc2)C(=O)N1)C(=O)O (H-TADCFWKYCV-OH; disulfide 4-9) | 0.11 nM |  |  |
